pIC50: −log10 of the molar value.
Legend:
RAW264.7 [1] = assay: Inhibition of lipopolysaccharide-induced nitric oxide production in mouse RAW264.7 cells pre-incubated for 30 mins before LPS stimulation for 20 hrs by Griess reagent based assay; format: functional, cell-based
HEK293 = assay: Inhibition of TNFalpha-activated nuclear factor-kappa B activity (unknown origin) expressed in HEK293 cells at 50 uM incubated for 6 hrs by luciferase reporter gene based assay; format: cell-based; conditions: Homo sapiens
[2] = Inhibition of TNFalpha-activated nuclear factor-kappa B activity (unknown origin) expressed in HEK293 cells incubated for 6 hrs by luciferase reporter gene based assay; format: cell-based; conditions: Homo sapiens, HEK293, 6 h
[3] = Toxicity against HEK293 cells assessed as cell survival at 50 uM; format: cell-based; conditions: human, read-out: Survival
RAW264.7 [4] = assay: Inhibition of lipopolysaccharide-induced nitric oxide production in mouse RAW264.7 cells at 50 uM pre-incubated for 30 mins before LPS stimulation for 20 hrs by Griess reagent based assay; format: functional
[5] = Toxicity against mouse RAW264.7 cells assessed as cell survival at 50 uM by SRB assay; format: cell-based; conditions: read-out: Survival

Compound	pIC50 (RAW264.7 [1])	inhibition (HEK293) [%]	pIC50 [2]	viability at 50 µM [3] [%]	inhibition at 50 µM (RAW264.7 [4]) [%]	viability at 50 µM [5] [%]
CNC(=N)NCCC[C@H](N)C(=O)O [TILARGININE]	4.63	–	–	–	–	–
CC1=C(C)C(=O)O[C@@H]([C@](C)(O)[C@]2(O)CC[C@@]3(O)[C@@H]4[C@@H](O)[C@@H](O)[C@@]5(O)CC=CC(=O)[C@]5(C)[C@H]4CC[C@]23C)C1	4.35	66.9	4.61	98.4	58.3	90.4
CC1=C(C)C(=O)O[C@@H]([C@](C)(O)[C@]2(O)C[C@H](O)[C@@]3(O)[C@@H]4C[C@H](O)[C@@]5(O)CCCC(=O)[C@]5(C)[C@H]4CC[C@@]32C)C1	–	60.4	4.98	83.9	47.7	100
CC1=C(C)C(=O)O[C@@H]([C@](C)(O)[C@]2(O)CC[C@@]3(O)[C@@H]4C[C@H]5O[C@]56[C@@H](O)[C@@H](O)CC(=O)[C@]6(C)[C@H]4CC[C@]23C)C1	5.11	54.1	–	97.1	86	100
CC1=C(C)C(=O)O[C@@H]([C@@](C)(O)[C@]2(O)CC[C@@]3(O)[C@@H]4C[C@@H](O)[C@@]5(O)CC=CC(=O)[C@]5(C)[C@H]4CC[C@]23C)C1	–	65.8	4.51	89.6	26.4	84.1
CC(=O)OC1C[C@H](O)CC2=CC[C@H]3[C@@H]4CC[C@H]([C@@](C)(O)[C@@H](O)C[C@@H]5COC(=O)[C@@H]5C)[C@@]4(C)CC[C@@H]3[C@]21C (some centres undefined)	4.93	56.1	5.96	36.5	84.2	95.3
CC1=C(CO)C[C@H]([C@](C)(O)[C@]2(O)CC[C@@]3(O)[C@@H]4C[C@@H](O)[C@@]5(O)CC=CC(=O)[C@]5(C)[C@H]4CC[C@]23C)OC1=O	–	41	–	81.6	7.4	100
CC1=C(C)C(=O)O[C@@H]([C@](C)(O)[C@]2(O)CC[C@@]3(O)[C@@H]4C[C@H](O)C5=CC=CC(=O)[C@]5(C)[C@H]4CC[C@]23C)C1	5.62	85	5.25	100	99.2	79.3
CC1=C(C)C(=O)O[C@@H]([C@](C)(O)[C@]2(O)CC[C@@]3(O)[C@@H]4C[C@H]5O[C@]56[C@@H](O)C=CC(=O)[C@]6(C)[C@H]4CC[C@]23C)C1	6.49	99.5	7.40	88.6	99.4	50.1
CC(=O)OC1C[C@H](O)CC2=CC[C@H]3[C@@H]4CC[C@H]([C@@](C)(O)[C@@H](O)C[C@@H]5COC(=O)[C@@]5(C)O)[C@@]4(C)CC[C@@H]3[C@]21C (some centres undefined)	–	64.4	5.68	73.3	3.7	100
CC1=C(C)C(=O)O[C@@H]([C@](C)(O)C2=CC[C@@]3(O)[C@@H]4C[C@H]5O[C@]56[C@@H](O)CCC(=O)[C@]6(C)[C@H]4CC[C@]23C)C1	4.84	43.7	–	81.9	64.7	100
